Data taken from ChEMBL document CHEMBL1151134, “Anti-AIDS agents, 1. Isolation and characterization of four new tetragalloylquinic acids as a new class of HIV reverse transcriptase inhibitors from tannic acid” (J Nat Prod, 1989).

How the values were obtained:
[1] = test system: Human immunodeficiency virus; assay: Inhibition of HIV reverse transcriptase assessed as incorporation of [3H]dTMP at 10 uM
H9 [2] = assay: Cytotoxicity against human H9 cells at 6.25 uM; type: cell-based; conditions: h9, 6.25 µM
[3] = test system: Human immunodeficiency virus 1; assay: Antiviral activity against HIV1 3B replication in human H9 cells at 1.25 uM after 3 days by p24 antigen capture assay relative to control; type: functional; conditions: Human immunodeficiency virus 1, 3B, H9, 72 h
[4] = Cytotoxicity against human H9 cells at 25 uM; type: cell-based; conditions: read-out: INH
[5] = test system: Human immunodeficiency virus; assay: Inhibition of HIV reverse transcriptase assessed as incorporation of [3H]dTMP at 100 uM
H9 [6] = assay: Cytotoxicity against human H9 cells at 1.25 uM; type: cell-based; conditions: h9, 1.25 µM
[7] = test system: Human immunodeficiency virus 1; assay: Antiviral activity against HIV1 3B replication in human H9 cells at 6.25 uM after 3 days by p24 antigen capture assay relative to control; type: functional; conditions: Human immunodeficiency virus 1, 3B, H9, 72 h
[8] = test system: Human immunodeficiency virus 1; assay: Antiviral activity against HIV1 3B replication in human H9 cells at 25 uM after 3 days by p24 antigen capture assay relative to control; type: functional; conditions: Human immunodeficiency virus 1, 3B, H9, 72 h
[9] = test system: Human immunodeficiency virus; assay: Inhibition of HIV reverse transcriptase assessed as incorporation of [3H]dTMP at 30 uM
[10] = test system: Human immunodeficiency virus; assay: Inhibition of HIV reverse transcriptase assessed as incorporation of [3H]dTMP at 0.6 uM
[11] = test system: Human immunodeficiency virus; assay: Inhibition of HIV reverse transcriptase assessed as incorporation of [3H]dTMP at 100 nM
[12] = biological target: T1, DNA polymerase alpha catalytic subunit (Homo sapiens) (UniProt P09884); assay: Inhibition of human DNA polymerase alpha
T1 sequence (whole entry): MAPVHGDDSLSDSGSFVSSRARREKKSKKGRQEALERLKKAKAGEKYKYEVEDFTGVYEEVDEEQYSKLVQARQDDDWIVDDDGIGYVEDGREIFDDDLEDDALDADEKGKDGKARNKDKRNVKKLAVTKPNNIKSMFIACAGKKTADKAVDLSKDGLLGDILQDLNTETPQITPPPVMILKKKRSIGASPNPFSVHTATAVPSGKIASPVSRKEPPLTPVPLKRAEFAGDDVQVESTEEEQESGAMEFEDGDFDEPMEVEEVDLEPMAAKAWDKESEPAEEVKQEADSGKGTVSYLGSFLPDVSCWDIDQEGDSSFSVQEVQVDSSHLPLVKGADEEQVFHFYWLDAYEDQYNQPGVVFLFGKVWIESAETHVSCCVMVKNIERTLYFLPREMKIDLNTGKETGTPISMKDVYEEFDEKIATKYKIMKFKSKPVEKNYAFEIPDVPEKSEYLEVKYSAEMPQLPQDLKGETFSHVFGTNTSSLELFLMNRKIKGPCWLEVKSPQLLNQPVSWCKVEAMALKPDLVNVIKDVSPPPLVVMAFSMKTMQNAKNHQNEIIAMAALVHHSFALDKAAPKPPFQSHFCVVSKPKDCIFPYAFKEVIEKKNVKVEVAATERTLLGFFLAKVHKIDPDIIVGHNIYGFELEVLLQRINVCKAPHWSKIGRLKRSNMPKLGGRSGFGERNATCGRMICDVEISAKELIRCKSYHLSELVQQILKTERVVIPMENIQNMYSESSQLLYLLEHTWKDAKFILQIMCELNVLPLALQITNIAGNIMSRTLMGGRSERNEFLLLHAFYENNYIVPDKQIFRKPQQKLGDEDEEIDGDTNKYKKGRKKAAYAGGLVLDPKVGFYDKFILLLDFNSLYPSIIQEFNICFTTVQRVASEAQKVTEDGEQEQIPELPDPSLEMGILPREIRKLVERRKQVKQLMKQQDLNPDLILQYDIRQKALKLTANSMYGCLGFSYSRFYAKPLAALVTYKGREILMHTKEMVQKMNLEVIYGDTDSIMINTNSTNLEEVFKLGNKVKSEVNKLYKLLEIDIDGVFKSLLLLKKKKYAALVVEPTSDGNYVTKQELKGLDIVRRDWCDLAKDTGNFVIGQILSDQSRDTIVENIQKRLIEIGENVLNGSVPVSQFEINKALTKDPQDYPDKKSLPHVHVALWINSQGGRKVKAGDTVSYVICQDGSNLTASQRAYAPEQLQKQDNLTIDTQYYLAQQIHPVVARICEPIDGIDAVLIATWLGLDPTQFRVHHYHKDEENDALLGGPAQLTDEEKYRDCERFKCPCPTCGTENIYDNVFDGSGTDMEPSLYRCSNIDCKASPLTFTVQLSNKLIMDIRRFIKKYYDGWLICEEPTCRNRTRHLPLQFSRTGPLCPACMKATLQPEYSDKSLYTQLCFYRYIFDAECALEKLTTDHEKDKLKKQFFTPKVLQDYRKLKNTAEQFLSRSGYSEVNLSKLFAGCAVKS

[13] = test system: Human immunodeficiency virus; assay: Inhibition of HIV reverse transcriptase
[14] = biological target: T2, DNA polymerase subunit gamma-1 (Homo sapiens) (UniProt P54098); assay: Inhibition of human DNA polymerase gamma
T2 sequence (whole entry): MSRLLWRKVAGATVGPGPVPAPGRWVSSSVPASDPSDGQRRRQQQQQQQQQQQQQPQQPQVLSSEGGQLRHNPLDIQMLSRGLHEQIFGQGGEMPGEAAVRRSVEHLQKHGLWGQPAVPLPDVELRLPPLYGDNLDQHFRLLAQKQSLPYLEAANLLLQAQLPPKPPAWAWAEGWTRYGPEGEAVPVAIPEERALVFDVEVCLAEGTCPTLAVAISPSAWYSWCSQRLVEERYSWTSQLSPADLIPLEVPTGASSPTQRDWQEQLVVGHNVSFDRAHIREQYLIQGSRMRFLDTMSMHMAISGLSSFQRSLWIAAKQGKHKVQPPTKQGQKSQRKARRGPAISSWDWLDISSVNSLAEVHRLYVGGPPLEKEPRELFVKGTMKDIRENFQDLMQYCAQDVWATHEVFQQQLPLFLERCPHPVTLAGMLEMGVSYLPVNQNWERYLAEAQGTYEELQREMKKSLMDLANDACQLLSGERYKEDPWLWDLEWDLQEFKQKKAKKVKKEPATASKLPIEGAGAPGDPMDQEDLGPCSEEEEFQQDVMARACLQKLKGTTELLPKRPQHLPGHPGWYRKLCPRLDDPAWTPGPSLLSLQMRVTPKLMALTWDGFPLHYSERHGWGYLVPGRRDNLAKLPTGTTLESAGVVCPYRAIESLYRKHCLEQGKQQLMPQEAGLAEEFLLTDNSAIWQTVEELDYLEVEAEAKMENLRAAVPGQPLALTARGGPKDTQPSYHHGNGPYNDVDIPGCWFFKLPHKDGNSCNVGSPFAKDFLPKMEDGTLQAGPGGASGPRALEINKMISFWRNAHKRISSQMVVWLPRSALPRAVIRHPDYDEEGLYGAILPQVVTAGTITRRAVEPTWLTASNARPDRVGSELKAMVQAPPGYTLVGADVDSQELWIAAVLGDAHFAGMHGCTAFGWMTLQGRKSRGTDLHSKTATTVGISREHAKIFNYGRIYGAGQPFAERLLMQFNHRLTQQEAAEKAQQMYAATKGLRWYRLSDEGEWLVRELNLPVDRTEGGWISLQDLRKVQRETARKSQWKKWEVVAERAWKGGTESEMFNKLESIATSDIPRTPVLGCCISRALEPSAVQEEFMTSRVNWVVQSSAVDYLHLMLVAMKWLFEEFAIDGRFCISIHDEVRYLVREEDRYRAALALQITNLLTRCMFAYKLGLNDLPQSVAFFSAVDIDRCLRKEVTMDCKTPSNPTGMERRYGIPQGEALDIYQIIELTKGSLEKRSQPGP

[15] = biological target: DNA polymerase beta (Homo sapiens) (UniProt P06746); assay: Inhibition of human DNA polymerase beta
[16] = test system: Human immunodeficiency virus; assay: Inhibition of HIV reverse transcriptase assessed as incorporation of [3H]dTMP at 100 ug/ml
[17] = test system: Human immunodeficiency virus 1; assay: Antiviral activity against HIV1 3B replication in human H9 cells at 7.7 uM after 3 days by p24 antigen capture assay relative to control; type: functional; conditions: Human immunodeficiency virus 1, 3B, H9, 72 h
[18] = test system: Human immunodeficiency virus 1; assay: Antiviral activity against HIV1 3B replication in human H9 cells at 30.8 uM after 3 days by p24 antigen capture assay relative to control; type: functional; conditions: Human immunodeficiency virus 1, 3B, H9, 72 h
[19] = test system: Human immunodeficiency virus 1; assay: Antiviral activity against HIV1 3B replication in human H9 cells at 1.5 uM after 3 days by p24 antigen capture assay relative to control; type: functional; conditions: Human immunodeficiency virus 1, 3B, H9, 72 h

Structure (SMILES)	inhibition [1] [%]	inhibition [5] [%]	inhibition [9] [%]	Activity (H9 [2])	inhibition at 1.25 µM [3] [%]	cytotoxicity at 25 µM [4] [%]	Activity (H9 [6])	inhibition at 6.25 µM [7] [%]	inhibition at 25 µM [8] [%]	also measured
O=C(O[C@@H]1C[C@](OC(=O)c2cc(O)c(O)c(O)c2)(C(=O)O)C[C@@H](OC(=O)c2cc(O)c(O)c(O)c2)[C@H]1OC(=O)c1cc(O)c(O)c(O)c1)c1cc(O)c(O)c(O)c1	36	94	84	Non-toxic	15	25	Non-toxic	52	66	
O=C(O)P(=O)(O)O										inhibition [10]: 63%
Cc1cn([C@H]2C[C@H](N=[N+]=[N-])[C@@H](COP(=O)(O)OP(=O)(O)OP(=O)(O)O)O2)c(=O)[nH]c1=O										inhibition [11]: 64%
O=C(OC[C@H]1O[C@@H](OC(=O)c2cc(O)c(O)c(OC(=O)c3cc(O)c(O)c(O)c3)c2)[C@H](OC(=O)c2cc(O)c(O)c(OC(=O)c3cc(O)c(O)c(O)c3)c2)[C@@H](OC(=O)c2cc(O)c(O)c(OC(=O)c3cc(O)c(O)c(O)c3)c2)[C@@H]1OC(=O)c1cc(O)c(O)c(OC(=O)c2cc(O)c(O)c(O)c2)c1)c1cc(O)c(O)c(OC(=O)c2cc(O)c(O)c(O)c2)c1										inhibition [16]: 74%
O=C(O[C@@H]1C[C@](O)(C(=O)O)C[C@@H](OC(=O)c2cc(O)c(O)c(O)c2)[C@H]1OC(=O)c1cc(O)c(O)c(O)c1)c1cc(O)c(O)c(O)c1	39	58	48	Non-toxic		14	Non-toxic			inhibition at 7.7 µM [17]: 59%; inhibition at 30.8 µM [18]: 70%; inhibition at 1.5 µM [19]: 26%

Continued, in another order:

inhibition [1] [%]	inhibition [5] [%]	inhibition [9] [%]	Structure (SMILES)	Activity (H9 [2])	inhibition at 1.25 µM [3] [%]	cytotoxicity at 25 µM [4] [%]	Activity (H9 [6])	inhibition at 6.25 µM [7] [%]	inhibition at 25 µM [8] [%]	also measured
50	84	63	O=C(Oc1c(O)cc(C(=O)O[C@@H]2C[C@](O)(C(=O)O)C[C@@H](OC(=O)c3cc(O)c(O)c(O)c3)[C@H]2OC(=O)c2cc(O)c(O)c(O)c2)cc1O)c1cc(O)c(O)c(O)c1	Non-toxic	13	25	Non-toxic	44	61	
55	89	70	O=C(Oc1c(O)cc(C(=O)O[C@@H]2C[C@@](O)(C(=O)O)C[C@@H](OC(=O)c3cc(O)c(O)c(O)c3)[C@@H]2OC(=O)c2cc(O)c(O)c(O)c2)cc1O)c1cc(O)c(O)c(O)c1	Non-toxic	28	0	Non-toxic	50	63	ID50 [12]: 0.065 µM; ID50 [13]: 29 µM; ID50 [14]: 2.5 µM; ID50 [15]: 21 µM
53	90	73	O=C(Oc1c(O)cc(C(=O)O[C@H]2[C@H](OC(=O)c3cc(O)c(O)c(O)c3)C[C@](O)(C(=O)O)C[C@H]2OC(=O)c2cc(O)c(O)c(O)c2)cc1O)c1cc(O)c(O)c(O)c1	Non-toxic	34	14	Non-toxic	57	71	
